Columns and labels:
[1] = GDH enzymatic activity of the chimeric proteins themselves; format: biochemical
Experimental: (§1) The GDH enzyme assay was performed as described by Yu et al.^20 Briefly, the 1.5-mL assay system consisted of 20 mM glucose, 0.6 mM phenazine methosulfate, 0.06 mM […], 10 mM MOPS (pH 7.0), and corresponding concentration of CaCl2 and enzyme. The enzymatic assay was performed at 25° C. by monitoring the reduction in the absorbance of […] at 600 nm.
We conjectured that dislocation of either of these residues will impact the catalysis and if carried out in a reversible fashion could utilized for controlling enzymes activity. To test this idea we inserted calmodulin (CaM) domain into GDH at the position 330 and produced the resulting CaM-GDH chimeric protein (SEQ ID NO: 10) in recombinant form. […] The activity of fully activated fusion represented 50% of activity of the wild-type protein. […] We therefore concluded that we successfully constructed a peptide regulated GDH biosensor module.
We next decided to test if the developed allosteric module can be used to construct a generic biosensor architecture. To this end we fused the developed CaM-GDH chimera C-terminally with rapamycin-binding FKBP domain (SEQ ID NO: 11) and produced the protein in recombinant form. […] We then constructed a fusion between FKBP binding partner FRB and CaM-BP that would associate with the former reporter molecule in the rapamycin dependent fashion. […]

[2] = system: affinity clamp-GDH chimera (SEQ ID NO: 25); assay: OFF switch: inhibition of GDH activity of affinity clamp-GDH chimera by PDZ peptides; format: biochemical; conditions: 10 nM chimera; 1 μM strong or 2 μM weak peptide ligand
From the text: (§2) FIG. 5. Development and applications of an OFF switch biosensor based on GDH. […] (C) as in B but using the biosensor with the optimized linkers between the affinity clamp and the GDH, titrated with the increasing concentrations of the strong ligand peptide. (D) A dissociative biosensor architecture based on the developed affinity clamp-GDH biosensor. The star denotes the ligand either genetically fused or conjugated to the regulatory domain. (E) Exemplification of the design shown in D with a biosensor for IL18: the ligand is IL18 and the binder is IL18 binding protein. […] (G) As in D but using a binder that competitively associates with the receptor domain and is dislodged by the binding of the ligand.
as §1
So far all presented biosensor architectures were designed to increase the GDH activity upon association with the analyte. While this is a common strategy it creates potential problems when binding of two protein modules to a single small molecule is required. […]

[3] = target: PDZ domain binding peptide; conditions: read-out: affinity for PDZ domain binding peptide; cited from earlier work
[4] = system: affinity clamp-GDH IL18 binding protein chimera (SEQ ID NO: 37) with IL18-affinity-clamp ligand fusion (SEQ ID NO: 38); assay: IL18 dissociative biosensor, GDH activity; format: biochemical; conditions: 10 nM SEQ ID NO: 37, 50 nM SEQ ID NO: 38; 0 to 2.5 μM IL18
From the text: as §2
The developed GDH —based OFF switch can be converted into biosensors of small molecules and biological polymers such as proteins and nucleic acids by fusing it to the appropriate binding domains (FIG. 5D) FIG. 5E depicts an IL18 biosensor that was generated incorporating a GDH-based OFF switch based on a fusion with IL18 binding protein, where the ligand is IL18 and the binder IL18 binding protein.

In the case of “CaM-GDH chimeric protein: PQQ-GDH with calmodulin domain inserted at position 330, recombinant”, the “GDH activity of the protein without activating ligand” value ([1]; absence of CaM-BP / activating ligand) is reported as “some GDH activity” and the “activity of fully activated fusion as share of activity of the wild-type protein” value ([1]; fully activated by CaM-BP) is reported as 50%.

For “RGSIDTWV (PDZ peptide (ePDZ ligand, high affinity)) [SEQ ID NO: 27]”, the “inhibition of GDH activity of affinity clamp-GDH chimera” value [2] was “stronger inhibition of GDH activity than the weaker ligand”.

B1: affinity clamp: circularly permutated Erbin PDZ domain linked to engineered fibronectin type III (FN3) (protein)
chain: EDAPESPELGFSISGGVGGRGNPFRPDDDGIFVTRVQPEGPASKLLQPGDKIIQANGYSFINIEHGQAVSLLKTFQNTVELIIVREVGNGAKQEIRVRVEKDGGSGGVSSVPTNLEVVAATPTSLLISWDAYRELPVSYYRITYGETGGNSPVQEFTVPGSKSTATISGLKPGVDYTITVYAHYNYHYYSSPISINYRGPG
modifications: ePDZ domain
In the case of B1, the Kd [3] is listed as under 1 nM.

B2: IL18: cytokine analyte of the dissociative biosensor (protein)
chain: GYFGKLESKLSVIRNLNDQVLFIDQGNRPLFEDMTDSDSRDNAPRTIFIISMYKDSQPRGMAVTISVKSEKISTLSSENKIISFKEMNPPDNIKDTKSDIIFFQRSVPGHDNKMQFESSSYEGYFLASEKERDLFKLILKKEDELGDRSIMFTVQNEDG
modifications: Interleukin-18
notes: cytokine analyte of the dissociative biosensor
In the case of B2, the “detection by IL18 biosensor (GDH activity)” value [4] is reported as “dose-dependent detection”.

— US20220333153A1, “ULTRASENSITIVE ELECTROCHEMICAL BIOSENSORS” (MOLECULAR WAREHOUSE, LTD., priority 2016, published 2022)
